According to ChEMBL document CHEMBL3232998, “Spiromastixones A-O, antibacterial chlorodepsidones from a deep-sea-derived Spiromastix sp. fungus” (J Nat Prod, 2014):
In brackets after ≈: the same amount, converted by molar mass. Values belong to the compound of their own block, whether it stands above or below them.

What was measured:
[1] = system: Staphylococcus epidermidis; assay: Antibacterial activity against methicillin-sensitive Staphylococcus epidermidis 12-6 after 18 hrs by broth microdilution method; type: functional, organism-based; conditions: 12-6, 18 h
[2] = system: Staphylococcus epidermidis; assay: Antibacterial activity against methicillin-sensitive Staphylococcus epidermidis ATCC 12228 after 18 hrs by broth microdilution method; type: functional, organism-based; conditions: ATCC 12228, 18 h, read-out: IC50
Staphylococcus aureus [3] = assay: Antibacterial activity against methicillin-sensitive Staphylococcus aureus ATCC 29213 after 18 hrs by broth microdilution method; type: functional, organism-based; conditions: ATCC 29213, 18 h, read-out: IC50
Staphylococcus aureus [4] = assay: Ratio of levofloxacin IC50 to compound IC50 for methicillin-resistant Staphylococcus aureus 12-33 after 18 hrs by broth microdilution method; type: functional
Enterococcus faecium [5] = assay: Antibacterial activity against vancomycin-resistant Enterococcus faecium ATCC 700221 after 18 hrs by broth microdilution method; type: functional, organism-based; conditions: ATCC 700221, 18 h, read-out: IC50
Klebsiella pneumoniae [6] = assay: Antibacterial activity against extended spectrum beta-lactamase-deficient Klebsiella pneumoniae 12-4 after 18 hrs by broth microdilution method; type: functional, organism-based; conditions: 12-4, 18 h
Enterococcus faecium [7] = assay: Antibacterial activity against vancomycin-sensitive Enterococcus faecium 12-3 after 18 hrs by broth microdilution method; type: functional, organism-based; conditions: 12-3, 18 h, read-out: IC50
Escherichia coli [8] = assay: Antibacterial activity against extended spectrum beta-lactamase-deficient Escherichia coli ATCC 25922 after 18 hrs by broth microdilution method; type: functional, organism-based; conditions: ATCC 25922, 18 h, read-out: IC50
Staphylococcus aureus [9] = assay: Antibacterial activity against methicillin-resistant Staphylococcus aureus 12-33 after 18 hrs by broth microdilution method; type: functional, organism-based; conditions: 12-33, 18 h, read-out: IC50
[10] = system: Staphylococcus epidermidis; assay: Antibacterial activity against methicillin-resistant Staphylococcus epidermidis 12-8 after 18 hrs by broth microdilution method; type: functional, organism-based; conditions: 12-8, 18 h, read-out: IC50
Staphylococcus aureus [11] = assay: Antibacterial activity against Staphylococcus aureus ATCC 29213 after 18 hrs by broth microdilution method; type: functional; conditions: ATCC 29213, 18 h
Staphylococcus aureus [12] = assay: Antibacterial activity against methicillin-resistant Staphylococcus aureus ATCC 33591 after 18 hrs by broth microdilution method; type: functional, organism-based; conditions: ATCC 33591, 18 h, read-out: IC50
Klebsiella pneumoniae [13] = assay: Antibacterial activity against extended spectrum beta-lactamase producing Klebsiella pneumoniae ATCC 700603 after 18 hrs by broth microdilution method; type: functional, organism-based; conditions: ATCC 700603, 18 h
Escherichia coli [14] = assay: Antibacterial activity against Escherichia coli ATCC 25922 after 18 hrs by broth microdilution method; type: functional; conditions: ATCC 25922, 18 h
Klebsiella pneumoniae [15] = assay: Antibacterial activity against NDM-1 producing Klebsiella pneumoniae ATCC BAA-2146 after 18 hrs by broth microdilution method; type: functional, organism-based; conditions: ATCC BAA-2146, 18 h, read-out: IC50
Enterococcus faecalis [16] = assay: Antibacterial activity against vancomycin-sensitive Enterococcus faecalis 12-5 after 18 hrs by broth microdilution method; type: functional, organism-based; conditions: 12-5, 18 h, read-out: IC50
Enterococcus faecium [17] = assay: Antibacterial activity against vancomycin-resistant Enterococcus faecium 12-1 after 18 hrs by broth microdilution method; type: functional, organism-based; conditions: 12-1, 18 h, read-out: IC50
Staphylococcus aureus [18] = assay: Antibacterial activity against methicillin-sensitive Staphylococcus aureus 15 after 18 hrs by broth microdilution method; type: functional, organism-based; conditions: Staphylococcus aureus, 15, 18 h; read-out: IC50
Enterococcus faecalis [19] = assay: Antibacterial activity against vancomycin-resistant Enterococcus faecalis 09-9 after 18 hrs by broth microdilution method; type: functional, organism-based; conditions: 09-9, 18 h, read-out: IC50
Escherichia coli [20] = assay: Antibacterial activity against extended spectrum beta-lactamase-deficient Escherichia coli 12-14 after 18 hrs by broth microdilution method; type: functional, organism-based; conditions: 12-14, 18 h, read-out: IC50
Enterococcus faecalis [21] = assay: Antibacterial activity against vancomycin-sensitive Enterococcus faecalis ATCC 29212 after 18 hrs by broth microdilution method; type: functional, organism-based; conditions: ATCC 29212, 18 h, read-out: IC50
Bacillus thuringiensis = assay: Antibacterial activity against Bacillus thuringiensis SCSIO BT01 after 18 hrs by broth microdilution method; type: functional; conditions: SCSIO BT01, 18 h
Klebsiella pneumoniae [22] = assay: Antibacterial activity against extended spectrum beta-lactamase-deficient Klebsiella pneumoniae 7 after 18 hrs by broth microdilution method; type: functional, organism-based; conditions: Klebsiella pneumoniae, 7, 18 h; read-out: IC50
Klebsiella pneumoniae [23] = assay: Antibacterial activity against extended spectrum beta-lactamase producing Klebsiella pneumoniae 12-8 after 18 hrs by broth microdilution method; type: functional, organism-based; conditions: 12-8, 18 h, read-out: IC50
Bacillus subtilis = assay: Antibacterial activity against Bacillus subtilis SCSIO BS01 after 18 hrs by broth microdilution method; type: functional; conditions: SCSIO BS01, 18 h
Enterococcus faecalis [24] = assay: Antibacterial activity against vancomycin-resistant Enterococcus faecalis ATCC 51299 after 18 hrs by broth microdilution method; type: functional, organism-based; conditions: ATCC 51299, 18 h, read-out: IC50
Staphylococcus aureus [25] = assay: Antibacterial activity against methicillin-sensitive Staphylococcus aureus 12-28 after 18 hrs by broth microdilution method; type: functional, organism-based; conditions: 12-28, 18 h
Escherichia coli [26] = assay: Antibacterial activity against extended spectrum beta-lactamase producing Escherichia coli 12-15 after 18 hrs by broth microdilution method; type: functional, organism-based; conditions: 12-15, 18 h, read-out: IC50
Escherichia coli [27] = assay: Antibacterial activity against extended spectrum beta-lactamase-deficient Escherichia coli 1515 after 18 hrs by broth microdilution method; type: functional, organism-based; conditions: Escherichia coli, 1515, 18 h

- MIC (Staphylococcus aureus [11]): 0.5 µg/mL (≈ 1.12 µM)
- MIC (Escherichia coli [14]): > 128 µg/mL
- MIC (Bacillus thuringiensis): 0.5 µg/mL (≈ 1.12 µM)
- MIC (Bacillus subtilis): 0.5 µg/mL (≈ 1.12 µM)
Structure (SMILES): CCCc1c(Cl)c(OC)cc2c1OC(=O)c1c(CCC)c(Cl)c(O)c(Cl)c1O2

- MIC (Staphylococcus aureus [11]): 4 µg/mL (≈ 10.1 µM)
- MIC (Escherichia coli [14]): > 128 µg/mL
- MIC (Bacillus thuringiensis): 2 µg/mL (≈ 5.03 µM)
- MIC (Bacillus subtilis): 2 µg/mL (≈ 5.03 µM)
Structure (SMILES): CCCc1cc(O)cc2c1OC(=O)c1c(CCC)c(Cl)c(O)c(Cl)c1O2

- MIC (Staphylococcus aureus [11]): 1 µg/mL (≈ 2.32 µM)
- MIC (Escherichia coli [14]): > 128 µg/mL
- MIC (Bacillus thuringiensis): 1 µg/mL (≈ 2.32 µM)
- MIC (Bacillus subtilis): 0.5 µg/mL (≈ 1.16 µM)
Structure (SMILES): CCCc1c(Cl)c(O)cc2c1OC(=O)c1c(CCC)c(Cl)c(O)c(Cl)c1O2

- MIC (Staphylococcus aureus [11]): 4 µg/mL (≈ 8.58 µM)
- MIC (Escherichia coli [14]): > 128 µg/mL
- MIC (Bacillus thuringiensis): 2 µg/mL (≈ 4.29 µM)
- MIC (Bacillus subtilis): 2 µg/mL (≈ 4.29 µM)
Structure (SMILES): CCCc1c(Cl)c(O)c(Cl)c2c1OC(=O)c1c(CCC)c(Cl)c(O)c(Cl)c1O2

- MIC (Staphylococcus aureus [11]): 0.125 µg/mL (≈ 0.374 µM)
- MIC (Escherichia coli [14]): > 128 µg/mL
- MIC (Bacillus thuringiensis): 128 µg/mL (≈ 383 µM)
- MIC (Bacillus subtilis): 0.125 µg/mL (≈ 0.374 µM)
Structure (SMILES): CC1(C)S[C@@H]2[C@H](NC(=O)Cc3ccccc3)C(=O)N2[C@H]1C(=O)O [PENICILLIN G]

Second part, the compound before the results:

Structure (SMILES): CCCc1c(Cl)c(O)c(Cl)c2c1Oc1c(Cl)c(O)c(Cl)c(CCC)c1C(=O)O2
- IC50 [1]: 4000 nM
- MIC [2]: 4 µM (≈ 1.86 µg/mL)
- MIC (Staphylococcus aureus [3]): 16 µM (≈ 7.46 µg/mL)
- Ratio IC50 (Staphylococcus aureus [4]): 2
- MIC (Enterococcus faecium [5]): 64 µM (≈ 29.8 µg/mL)
- IC50 (Klebsiella pneumoniae [6]): > 256000 nM
- MIC (Enterococcus faecium [7]): 64 µM (≈ 29.8 µg/mL)
- MIC (Escherichia coli [8]): > 256 µM
- MIC (Staphylococcus aureus [9]): 32 µM (≈ 14.9 µg/mL)
- MIC [10]: 8 µM (≈ 3.73 µg/mL)
- MIC (Staphylococcus aureus [11]): 4 µg/mL (≈ 8.58 µM)
- MIC (Staphylococcus aureus [12]): 16 µM (≈ 7.46 µg/mL)
- IC50 (Klebsiella pneumoniae [13]): > 256000 nM
- MIC (Escherichia coli [14]): > 128 µg/mL
- MIC (Klebsiella pneumoniae [15]): > 256 µM
- MIC (Enterococcus faecalis [16]): 64 µM (≈ 29.8 µg/mL)
- MIC (Enterococcus faecium [17]): 64 µM (≈ 29.8 µg/mL)
- MIC (Staphylococcus aureus [18]): 16 µM (≈ 7.46 µg/mL)
- MIC (Enterococcus faecalis [19]): 64 µM (≈ 29.8 µg/mL)
- MIC (Escherichia coli [20]): > 256 µM
- MIC (Enterococcus faecalis [21]): 64 µM (≈ 29.8 µg/mL)
- MIC (Bacillus thuringiensis): 2 µg/mL (≈ 4.29 µM)
- MIC (Klebsiella pneumoniae [22]): > 256 µM
- MIC (Klebsiella pneumoniae [23]): > 256 µM
- MIC (Bacillus subtilis): 2 µg/mL (≈ 4.29 µM)
- MIC (Enterococcus faecalis [24]): 64 µM (≈ 29.8 µg/mL)
- IC50 (Staphylococcus aureus [25]): 16000 nM
- MIC (Escherichia coli [26]): > 256 µM
- IC50 (Escherichia coli [27]): > 256000 nM

Structure (SMILES): CCCc1c(Cl)c(OC)c(Cl)c2c1OC(=O)c1c(CCC)c(Cl)c(O)c(Cl)c1O2
- MIC (Staphylococcus aureus [11]): 0.25 µg/mL (≈ 0.521 µM)
- MIC (Escherichia coli [14]): > 128 µg/mL
- MIC (Bacillus thuringiensis): 0.5 µg/mL (≈ 1.04 µM)
- MIC (Bacillus subtilis): 0.25 µg/mL (≈ 0.521 µM)

Structure (SMILES): C[C@H]1COc2c(N3CCN(C)CC3)c(F)cc3c(=O)c(C(=O)O)cn1c23 [LEVOFLOXACIN]
- IC50 [1]: 250 nM
- MIC [2]: 0.25 µM (≈ 0.0903 µg/mL)
- MIC (Staphylococcus aureus [3]): 0.25 µM (≈ 0.0903 µg/mL)
- MIC (Enterococcus faecium [5]): 64 µM (≈ 23.1 µg/mL)
- IC50 (Klebsiella pneumoniae [6]): 125 nM
- MIC (Enterococcus faecium [7]): 64 µM (≈ 23.1 µg/mL)
- MIC (Escherichia coli [8]): ≤ 0.03 µM
- MIC (Staphylococcus aureus [9]): 64 µM (≈ 23.1 µg/mL)
- MIC [10]: 4 µM (≈ 1.45 µg/mL)
- MIC (Staphylococcus aureus [12]): 0.25 µM (≈ 0.0903 µg/mL)
- IC50 (Klebsiella pneumoniae [13]): 1000 nM
- MIC (Klebsiella pneumoniae [15]): > 128 µM
- MIC (Enterococcus faecalis [16]): 1 µM (≈ 0.361 µg/mL)
- MIC (Enterococcus faecium [17]): 64 µM (≈ 23.1 µg/mL)
- MIC (Staphylococcus aureus [18]): 0.125 µM (≈ 0.0452 µg/mL)
- MIC (Enterococcus faecalis [19]): > 128 µM
- MIC (Escherichia coli [20]): 1 µM (≈ 0.361 µg/mL)
- MIC (Enterococcus faecalis [21]): 1 µM (≈ 0.361 µg/mL)
- MIC (Klebsiella pneumoniae [22]): 0.25 µM (≈ 0.0903 µg/mL)
- MIC (Klebsiella pneumoniae [23]): 16 µM (≈ 5.78 µg/mL)
- MIC (Enterococcus faecalis [24]): 1 µM (≈ 0.361 µg/mL)
- IC50 (Staphylococcus aureus [25]): 250 nM
- MIC (Escherichia coli [26]): 32 µM (≈ 11.6 µg/mL)
- IC50 (Escherichia coli [27]): 125 nM
